Measured values from patent US8350048B2, “Amide compounds as boosters of antivirals” (Janssen R&D Ireland, priority 2007, dated 2013).
Read-outs that look alike come from different tables or passages of the source.

Experiments:
CYP3A4 [1] = target: T1, CYP3A4 (Homo sapiens, UniProt P08684); assay: CYP450 inhibition CDNA-CYP3A4-BFC; settings: for Cyp450 inhibition: CDNA-CYP3A4-BFC (% inhibition): 10 μM test compound, substrate BFC 150 μM, 30 min
Source text: (§1) Assay 4: CYP450 Inhibition

CYP3A4 [2] = target: T1, CYP3A4; assay: CYP450 inhibition CDNA-CYP3A4-BQ; settings: for Cyp450 inhibition: CDNA-CYP3A4-BQ (% inhibition): 10 μM test compound, substrate BQ 60 μM, 30 min
Source text: as §1

CYP2C9 = CYP2C9 (Homo sapiens, UniProt P11712); assay: in vitro; settings: for inhibition at 30 min, 10 μM: human, pH 7.4
Source text: as §1

[3] = system: wild-type HIV-1IIIB strain; assay: Antiviral activity, MT4 LTR-EGFP cellular assay; format: cell-based; set-up: key to Antiviral activity IIIB (pEC50): pEC50 = -log10(EC50); settings: for EC50: read-out: Antiviral activity IIIB (pEC50) (converted)
Protocol: (§2) Assay 1 &2: Antiviral Activity/Toxicity
The compounds of the present invention were tested for antiviral activity in a cellular assay, which was performed according to the following procedure.
The human T-cell line MT4 is engineered with Green Fluorescent Protein (GFP) and an HIV-specific promoter, HIV-1 long terminal repeat (LTR). This cell line is designated MT4 LTR-EGFP, and can be used for the in vitro evaluation of anti-HIV activity of investigational compounds. In HIV-1 infected cells, the Tat protein is produced which upregulates the LTR promotor and finally leads to stimulation of the GFP reporter production, allowing measuring ongoing HIV-infection fluorometrically.
(§3) The ratio of CC50 to EC50 is defined as the selectivity index (SI) and is an indication of the selectivity of the anti-HIV activity of the inhibitor. The ultimate monitoring of HIV-1 infection and cytotoxicity is done using a scanning microscope. Image analysis allows very sensitive detection of viral infection. Measurements are done before cell necrosis, which usually takes place about five days after infection, in particular measurements are performed three days after infection.
(§4) A pEC50 value corresponds to −log10(EC50). A pCC50 value corresponds to −log10(CC50).

CYP2C19 [4] = target: T2, CYP2C19 (Homo sapiens, UniProt P33261); assay: CYP450 inhibition CDNA-CYP2C19-CEC; settings: 10 μM test compound, substrate CEC 25 μM, 30 min
Protocol: (§6) Inhibition of the metabolism of test compounds by different CYP P450 isoenzymes was determined using E. coli expressed proteins (3A4, 2C9, 2D6, 1A2, and 2C19) that convert their specific substrates into a fluorescent molecule (Table 6). This fluorescent molecule was measured using a fluorescent plate reader (Victor2 (Wallac) or Fluoroskan (Labsystems)). […] CYP P450 enzymes were prepared in house or commercially bought and stored at −80° C.
(§7) The assay was performed in black 96 well Costar plates. Test compounds were added to a CYP P450 enzyme solution in the presence of an NADPH generating system. After 5 min of preincubation at 37° C., the freshly prepared, phosphate buffered (pH 7.4) substrate solution was added. Known CYP P450 inhibitors were used as positive controls, negative controls were run without CYP P450 enzyme. […] Reaction mixtures were incubated at 37° C. for 30 min (CYP3A4-BFC), 30 min (CYP3A4-BQ), 10 min (CYP3A4-DBF), 15 min (CYP1A2-CEC), 30 min (CYP2C9-MFC, CYP2C19-CEC), or 45 min (CYP2D6-AMMC), respectively. Then, the reaction was stopped by the addition of 200 μl acetonitrile, and the fluorescent signal was detected.
(§8) Calculation of CYP P450 isoenzyme inhibition (% inh.):
(§9) % activity=(100/(average positive control−average negative control))×(average sample−average negative control)

[5] = Metabolic stability of test compounds (HLM15'); format: in vitro ADME, human; settings: human liver microsomes 1 mg/ml, 5 μM test compound, 15 min; for recovery at 15 min, 5 μM: pH 7.4, read-out: Metabolic stability (HLM, % recovery after 15')
Source text: Human liver tissue is rinsed in ice-cold 0.1 M Tris-HCl (pH 7.4) buffer to wash excess blood. Tissue is then blotted dry, weighed and chopped coarsely using surgical scissors. The tissue pieces are homogenized in 3 volumes of ice-cold 0.1 M phosphate buffer (pH 7.4) using either a Potter-S (Braun, Italy) equipped with a Teflon pestle or a Sorvall Omni-Mix homogenizer, for 7×10 sec. In both cases, the vessel is kept in/on ice during the homogenization process. Tissue homogenates are centrifuged at 9000×g for 20 min at 4° C. using a Sorvall centrifuge or Beckman Ultracentrifuge. The resulting supernatant can be stored at −80° C. and is designated ‘S9’. The S9 fraction is centrifuged at 100,000×g for 60 min at 4° C. using a Beckman ultracentrifuge. The resulting supernatant is carefully aspirated, aliquoted and designated ‘cytosol’. The pellet is re-suspended in 0.1 M phosphate buffer (pH 7.4) in a final volume of 1 ml per 0.5 g original tissue weight and designated ‘microsomes’. All sub-cellular fractions are aliquoted, immediately frozen in liquid nitrogen and stored at −80° C. until use.
Heat-inactivated (10 min at 95° C.) ‘S9’ or microsomes were used for blank experiments. […] The reaction was incubated for 0 or 15 min. Next, the reaction was stopped by addition of 2 volumes of DMSO (or acetonitrile). Samples were centrifuged (10 min, 900×g) and analyzed by LC-MS.

MT4 CMV-EGFP cells = assay: Toxicity, mock-infected MT4 CMV-EGFP cells; format: cell-based, human
Source text: as §2
(§5) Analogously, MT4 cells are engineered with GFP and the constitutional cytomegalovirus (CMV) promotor. […] Cytotoxic investigational compounds reduce GFP levels of mock-infected MT4 CMV-EGFP cells.
as §3, §4

CYP3A4 [6] = target: T1, CYP3A4; assay: in vitro; settings: human, pH 7.4
Source text: as §1

CYP2D6 = CYP2D6 (Homo sapiens, UniProt P10635); assay: in vitro; settings: pH 7.4
Protocol: as §6, §7, §8, §9

CYP1A2 = target: T3, CYP1A2 (Homo sapiens, UniProt P05177); assay: in vitro; settings: E. coli expressed CYP1A2, pH 7.4, probe CEC 5 μM
T3 sequence (P05177 1-516): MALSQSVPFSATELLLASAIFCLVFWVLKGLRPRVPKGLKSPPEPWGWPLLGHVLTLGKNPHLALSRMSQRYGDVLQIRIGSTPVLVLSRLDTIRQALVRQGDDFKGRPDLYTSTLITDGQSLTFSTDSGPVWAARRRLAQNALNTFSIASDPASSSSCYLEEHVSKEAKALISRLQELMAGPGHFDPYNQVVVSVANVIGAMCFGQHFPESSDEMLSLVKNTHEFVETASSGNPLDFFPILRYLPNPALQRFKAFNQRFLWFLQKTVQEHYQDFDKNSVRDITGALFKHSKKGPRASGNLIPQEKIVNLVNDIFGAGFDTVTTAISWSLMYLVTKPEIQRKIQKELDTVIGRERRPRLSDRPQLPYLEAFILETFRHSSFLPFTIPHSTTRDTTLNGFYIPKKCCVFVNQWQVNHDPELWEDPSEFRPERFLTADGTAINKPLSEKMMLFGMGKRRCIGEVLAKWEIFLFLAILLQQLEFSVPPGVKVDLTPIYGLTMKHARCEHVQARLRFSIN
Protocol: as §6, §7, §8, §9

CYP2C19 [7] = target: T2, CYP2C19; assay: in vitro; settings: E. coli expressed CYP2C19, pH 7.4, probe CEC 25 μM
Protocol: as §6, §7, §8, §9

[8] = Toxicity, mock-infected MT4 CMV-EGFP cells; format: cell-based, human; settings: human; for CC50 at 3 days: mock-infected MT4 CMV-EGFP cells, read-out: Toxicity MT4 (pCC50) (converted)
Source text: as §2, §5, §3, §4

[9] = wild-type HIV-1 IIIB, MT4 LTR-EGFP cells, three days after infection
[10] = Human immunodeficiency virus 1, 72 h, wild-type HIV-1 IIIB, MT4 LTR-EGFP cells, three days after infection

CYP2D6, sequence (P10635 whole entry): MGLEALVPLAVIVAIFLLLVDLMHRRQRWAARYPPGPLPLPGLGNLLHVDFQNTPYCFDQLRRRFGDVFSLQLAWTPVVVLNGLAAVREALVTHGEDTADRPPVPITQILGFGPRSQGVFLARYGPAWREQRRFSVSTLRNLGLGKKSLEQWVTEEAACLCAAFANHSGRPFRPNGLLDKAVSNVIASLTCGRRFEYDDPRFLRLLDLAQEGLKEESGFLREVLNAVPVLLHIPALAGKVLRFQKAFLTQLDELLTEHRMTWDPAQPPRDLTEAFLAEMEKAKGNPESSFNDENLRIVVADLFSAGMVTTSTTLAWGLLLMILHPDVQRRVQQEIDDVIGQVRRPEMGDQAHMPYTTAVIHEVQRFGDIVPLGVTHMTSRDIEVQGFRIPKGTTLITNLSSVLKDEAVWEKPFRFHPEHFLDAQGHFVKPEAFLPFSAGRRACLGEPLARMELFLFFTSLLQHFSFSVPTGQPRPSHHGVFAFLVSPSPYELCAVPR
CYP2C9, sequence (P11712 whole entry): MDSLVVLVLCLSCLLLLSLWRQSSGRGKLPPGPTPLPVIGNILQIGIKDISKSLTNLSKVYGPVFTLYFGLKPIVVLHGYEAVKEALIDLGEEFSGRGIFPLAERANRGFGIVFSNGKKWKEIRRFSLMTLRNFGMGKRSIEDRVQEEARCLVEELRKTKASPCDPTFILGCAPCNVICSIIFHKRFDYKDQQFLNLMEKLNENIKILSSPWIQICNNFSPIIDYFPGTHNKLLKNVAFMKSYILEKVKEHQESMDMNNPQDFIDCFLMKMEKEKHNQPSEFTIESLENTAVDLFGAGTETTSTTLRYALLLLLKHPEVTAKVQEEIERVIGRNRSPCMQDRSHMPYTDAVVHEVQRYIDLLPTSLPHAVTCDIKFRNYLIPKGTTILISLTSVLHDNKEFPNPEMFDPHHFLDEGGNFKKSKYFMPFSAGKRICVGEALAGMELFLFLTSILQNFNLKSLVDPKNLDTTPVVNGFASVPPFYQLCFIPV
T1 sequence (P08684 whole entry): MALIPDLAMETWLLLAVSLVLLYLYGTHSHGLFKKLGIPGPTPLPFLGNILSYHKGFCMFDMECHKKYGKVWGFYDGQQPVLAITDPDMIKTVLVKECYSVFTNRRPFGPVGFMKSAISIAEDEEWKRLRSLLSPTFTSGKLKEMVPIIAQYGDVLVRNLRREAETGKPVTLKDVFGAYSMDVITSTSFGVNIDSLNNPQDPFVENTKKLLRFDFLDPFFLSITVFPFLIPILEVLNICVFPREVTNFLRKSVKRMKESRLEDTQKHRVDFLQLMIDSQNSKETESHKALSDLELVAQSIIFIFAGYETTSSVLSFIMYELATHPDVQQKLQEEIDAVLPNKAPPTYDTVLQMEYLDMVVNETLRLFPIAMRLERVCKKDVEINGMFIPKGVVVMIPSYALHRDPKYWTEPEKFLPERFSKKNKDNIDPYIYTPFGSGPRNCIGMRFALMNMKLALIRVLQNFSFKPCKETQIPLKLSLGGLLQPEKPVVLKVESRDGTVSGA
T2 sequence (P33261 whole entry): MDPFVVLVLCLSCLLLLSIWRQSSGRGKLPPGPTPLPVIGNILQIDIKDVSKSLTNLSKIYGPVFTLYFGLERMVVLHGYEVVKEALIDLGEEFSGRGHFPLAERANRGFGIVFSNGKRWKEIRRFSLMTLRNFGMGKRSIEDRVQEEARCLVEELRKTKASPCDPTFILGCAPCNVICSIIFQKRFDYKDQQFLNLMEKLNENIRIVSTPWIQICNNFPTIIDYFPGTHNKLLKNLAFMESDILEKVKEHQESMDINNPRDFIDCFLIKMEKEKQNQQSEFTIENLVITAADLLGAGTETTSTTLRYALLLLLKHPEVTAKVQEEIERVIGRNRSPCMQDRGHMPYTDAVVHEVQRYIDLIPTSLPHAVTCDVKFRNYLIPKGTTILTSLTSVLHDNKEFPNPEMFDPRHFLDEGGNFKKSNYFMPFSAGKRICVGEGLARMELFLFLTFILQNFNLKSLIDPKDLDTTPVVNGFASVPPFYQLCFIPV

Compound	Cyp450 inhibition: CDNA-CYP3A4-BFC (% inhibition) (CYP3A4 [1]) [%]	Cyp450 inhibition: CDNA-CYP3A4-BQ (% inhibition) (CYP3A4 [2]) [%]	Cyp450 inhibition: CDNA-CYP2C9-MFC (% inhibition) (CYP2C9) [%]	Antiviral activity IIIB (pEC50) [3, 9]	Cyp450 inhibition: CDNA-CYP2C19-CEC (% inhibition) (CYP2C19 [4]) [%]	Metabolic stability (HLM, % recovery after 15') [5] [%]	Toxicity MT4 (pCC50) (MT4 CMV-EGFP cells)	inhibition at 30 min, 10 μM (CYP3A4 [1]; human, E. coli expressed CYP3A4, pH 7.4, probe BFC 150 μM) [%]	inhibition at 30 min, 10 μM (CYP3A4 [2]; human, E. coli expressed CYP3A4, pH 7.4, probe BQ 60 μM) [%]	inhibition at 10 min, 10 μM (CYP3A4 [6]) [%]	inhibition at 30 min, 10 μM (CYP2C9) [%]	inhibition at 45 min, 10 μM (CYP2D6) [%]	inhibition at 15 min, 10 μM (CYP1A2) [%]	EC50 ([3]; Human immunodeficiency virus 1, IIIB, 72 h) [µM]	inhibition at 30 min, 10 μM (CYP2C19 [7]) [%]	CC50 at 3 days [8] [µM]	EC50 [3, 10] [µM]	recovery at 15 min, 5 μM [5] [%]	CC50 [8] [µM]
O=C(N[C@@H](Cc1ccccc1)[C@H](O)CN(CC1CCC(F)(F)CC1)C(=O)c1ccc2nc(N3CCCC3)oc2c1)OCc1cncs1 [Compound C47]	95	85	98	=4.53	96	78	=4.38												
CC(C)(C)CN(C[C@@H](O)[C@H](Cc1ccccc1)NC(=O)OCc1cncs1)C(=O)c1ccc2nc(N3CCCC3)oc2c1 [Compound C37]	97	79	96	=4.35	92	71	=4.31												
CN(C)CCN(C[C@@H](O)[C@H](Cc1ccccc1)NC(=O)OCc1cncs1)C(=O)c1ccc2nc(N3CCCC3)oc2c1 [Compound C17]	95	79	34	<4.00	46	55	<4.00												
CC(C)CN(C[C@@H](O)[C@H](Cc1ccccc1)NC(=O)OCc1cncs1)C(=O)c1ccc2nc(N3CCCC3)oc2c1 [Compound C2]				<4.00	92	78	<4.00												
CCc1nc2ccc(C(=O)N(CC(C)C)C[C@@H](O)[C@H](Cc3ccccc3)NC(=O)OCc3cncs3)cc2o1 [Compound C39, Thiazol-5-ylmethyl (2S,3R)-4-(2-ethyl-N-isobutylbenzo[d]oxazole-6-carboxamido)-3-hydroxy-1-phenylbutan-2-ylcarbamate]								95	77	92	95	51	2	87.1	87	> 100			
O=C(N[C@@H](Cc1ccccc1)[C@H](O)CN(CCN1CCOCC1)C(=O)c1ccc2nc(N3CCCC3)oc2c1)OCc1cncs1 [Compound C20]	96	81	72	<4.00	65	65	<4.00												
CC(C)(O)CN(C[C@@H](O)[C@H](Cc1ccccc1)NC(=O)OCc1cncs1)C(=O)c1ccc2nc(N3CCCC3)oc2c1 [Compound C28]	98	79	99	<4.00	83	72	<4.00												
CCN(C)c1nc2ccc(C(=O)N(CC(C)C)C[C@@H](O)[C@H](Cc3ccc(F)cc3)NC(=O)OCc3cncs3)cc2o1 [Compound C53, Thiazol-5-ylmethyl (2S,3R)-4-(2-(ethyl(methyl)amino)-N-isobutylbenzo[d]-oxazole-6-carboxamido)-1-(4-fluorophenyl)-3-hydroxybutan-2-ylcarbamate]											96	61	0		95		46.8	71	50.1
CN(C[C@@H](O)[C@H](Cc1ccccc1)NC(=O)OCc1cncs1)C(=O)c1ccc2nc(N3CCCC3)oc2c1 [Compound C21]	96	81	100	<4.00	90	71	<4.00												
O=C(N[C@@H](Cc1ccccc1)[C@H](O)CN(CCN1CCCC1)C(=O)c1ccc2nc(N3CCCC3)oc2c1)OCc1cncs1 [Compound C13]	91	76	42	=4.24	46	81	<4.00												
CCN(C)c1nc2ccc(C(=O)N(CC3CCCCC3)C[C@@H](O)[C@H](Cc3ccccc3)NC(=O)OCc3cncs3)cc2o1 [Compound C32, Thiazol-5-ylmethyl (2S,3R)-4-(N-(cyclohexylmethyl)-2-(ethyl(methyl)-amino)benzo[d]oxazole-6-carboxamido)-3-hydroxy-1-phenylbutan-2-yl-carbamate]											98	87	27		100	21.4	20.9	54	
